Measurements reported in patent US10865196B2, “Compounds for treatment of cancer” (University of Tennessee Research Foundation, priority 2008, dated 2020).
Like-named read-outs stand apart in the source and are kept apart here.

Experiments:
OVCAR-8 = test: SRB antiproliferation assay, OVCAR-8 ovarian cancer; conditions: Homo sapiens, OVCAR-8, read-out: IC50 OVCAR-8
[1] = tested on: prostate cancer cells (LNCaP, PC-3, DU-145, PPC-1); test: SRB assay, prostate cancer cells; type: cell-based, human
B16-F1 = test: SRB antiproliferation assay, B16-F1 melanoma; type: cell-based, mouse; conditions: Mus musculus, B16-F1, SRB; read-out: IC50 B16-F1 (converted)
Text: (§1) For melanoma assays, one human melanoma cell line (A375) and one mouse melanoma cell line (B16-F1) were used. […] Fibroblast cells were used as a control to determine the selectivity of these compounds against melanoma. Human dermal fibroblast cells were purchased from Cascade Biologics, Inc., Portland, Oreg., USA.

A375 = test: SRB antiproliferation assay, A375 melanoma; type: cell-based, human; conditions: read-out: IC50 A375 (converted)
Text: as §1

PC-3 = test: SRB antiproliferation assay, PC-3 prostate cancer; conditions: read-out: IC50 PC-3, SRB
LNCaP = test: SRB antiproliferation assay, LNCaP prostate cancer; conditions: read-out: IC50 LNCaP, SRB
PPC-1 = test: SRB antiproliferation assay, PPC-1 prostate cancer; conditions: read-out: IC50 PPC-1, SRB
DU 145 = test: SRB antiproliferation assay, DU 145 prostate cancer; conditions: read-out: IC50 DU 145, SRB
[2] = tested on: melanoma (A375, B16-F1) and prostate cancer cells (DU145, PC-3, LNCaP, PPC-1); test: SRB assay, range over melanoma and prostate cancer cell lines; type: cell-based; conditions: for IC50: range over the examined cell lines, read-out: IC50 over melanoma and prostate cancer cell lines
Method: (§2) For melanoma assays, one human melanoma cell line (A375) and one mouse melanoma cell line (B16-F1) were used. […] Fibroblast cells were used as a control to determine the selectivity of these compounds against melanoma. Human dermal fibroblast cells were purchased from Cascade Biologics, Inc., Portland, Oreg., USA. […] Cells were exposed to a wide range of concentrations for 48 h in round-bottomed 96-well plates. […] After cells were air-dried overnight and stained with SRB solution, total proteins were measured at 560 nm with a plate reader.

[3] = tested on: Human dermal fibroblast cells; test: SRB assay, fibroblast control cells; type: cell-based
Method: as §2

Row | SMILES | IC50 (B16-F1) [nM] | IC50 (A375; Homo sapiens, A-375, SRB) [nM] | IC50 (PC-3) [nM] | IC50 (LNCaP) [nM] | IC50 (PPC-1) [nM] | IC50 (DU 145) [nM] | melting point [°C] | further results
1 | COc1cc(C(=O)c2csc(-c3ccc(CN)cc3)n2)cc(OC)c1OC | – | – | – | – | – | – | – | IC50 (OVCAR-8): 26 ± 2 nM
2 | COc1cc(C(=O)c2csc(Nc3ccccc3)n2)cc(OC)c1OC [5-a] | – | – | – | – | – | – | – | activity in prostate cancer cell lines, in words [1]: potent activity
3 | COc1cc(C(=O)c2csc(Nc3ccc(F)cc3)n2)cc(OC)c1OC [5-c] | – | – | – | – | – | – | – | activity in prostate cancer cell lines, in words [1]: potent activity
4 | COc1cc(C(=O)c2csc(Nc3ccc(Cl)cc3)n2)cc(OC)c1OC [5-d] | – | – | – | – | – | – | – | activity in prostate cancer cell lines, in words [1]: potent activity
5 | COc1cc(C(=O)c2csc(-c3ccc(C#N)cc3)n2)cc(OC)c1OC [8q, 4-[4-(3,4,5-Trimethoxybenzoyl)-thiazol-2-yl]-benzonitrile] | 53 | 59 | 30 | 15 | 19 | 52 | – | –
6 | COc1cc(C(=O)c2csc(-c3ccc(C(F)(F)F)cc3)n2)cc(OC)c1OC [8t, (2-(4-(Trifluoromethyl)-phenyl)-thiazol-4-yl)(3,4,5-trimethoxyphenyl)-methanone] | 92 | 23 | 58 | 94 | 76 | 50 | – | –
7 | COc1cc(C(=O)c2csc(-c3ccc(Br)cc3)n2)cc(OC)c1OC [8u, [2-(4-Bromophenyl)-thiazol-4-yl]-(3,4,5-trimethoxyphenyl)-methanone] | 32 | 13 | 18 | 44 | 21 | 21 | – | IC50 ([1]; Homo sapiens, range over prostate cancer cell lines, read-out: IC50 values against prostate cancer cells): 18 to 44 nM
8 | CCc1ccc(-c2nc(C(=O)c3cc(OC)c(OC)c(OC)c3)cs2)cc1 [8v, [2-(4-Ethyl-phenyl)-thiazol-4-yl]-(3,4,5-trimethoxy-phenyl)-methanone] | 70 | – | 27 | 60 | 22 | 31 | – | IC50 [2]: 17 to 70 nM
9 | COc1cc(C(=O)c2csc(-c3ccncc3)n2)cc(OC)c1OC [8x, [2-(Pyridin-4-yl)-thiazol-4-yl]-(3,4,5-trimethoxyphenyl)-methanone] | > 100000 | > 100000 | > 20000 | > 20000 | > 20000 | > 20000 | 178 to 180 | –
10 | COc1cc(C(=O)c2csc(-c3ncccn3)n2)cc(OC)c1OC [8y, [2-(Pyrimidin-2-yl)-thiazol-4-yl]-(3,4,5-trimethoxyphenyl)-methanone] | 2300 | 4100 | 2660 | 2370 | 1190 | 2810 | 190 to 191 | IC50 [2]: 11800 to 41000 nM
11 | CC(=O)Nc1ccc(C2N[C@H](C(=O)Nc3ccc4c(c3)Cc3ccccc3-4)CS2)cc1 (some centres unmarked) [ATCAA-2, reference compound] | – | – | – | – | – | – | – | IC50 (A375; SRB, 48 h): 2100 ± 100 nM; IC50 [2]: 1600 to 3900 nM; IC50 (PC-3; 96 h): 2100 ± 100 nM; IC50 (LNCaP; 96 h): 3500 ± 700 nM; IC50 (PPC-1; 96 h): 1600 ± 100 nM; IC50 (DU 145; 96 h): 1900 ± 300 nM
12 | COc1cc(C(=O)c2cscn2)cc(OC)c1OC [compound 10, Thiazol-4-yl-(3,4,5-trimethoxy-phenyl)-methanone] | > 100000 | > 100000 | > 20000 | > 20000 | > 20000 | > 20000 | 106 to 108 | antiproliferative activity against melanoma and prostate cancer cell lines, in words ([2]; compared with 8f or parent compounds): total loss of activity
13 | COc1cc(/C(=N/N)c2csc(-c3ccccc3)n2)cc(OC)c1OC [compound 35, (Z)-4-(Hydrazono(3,4,5-trimethoxyphenyl)methyl)-2-phenylthiazole] | – | – | – | – | – | – | 117 to 119 | IC50 [3]: 1900 nM
14 | COc1cc(/C(=N\N)c2csc(-c3ccccc3)n2)cc(OC)c1OC [compound 36, (E)-4-(Hydrazono(3,4,5-trimethoxyphenyl)methyl)-2-phenylthiazole] | – | – | – | – | – | – | 65 to 66 | IC50 [3]: 1000 nM
